Where “and” joins values, the source holds several entries; their conditions need not be identical. Equal entries are not always repeated.
Legend:
[1] = xn = mol fraction of the nth substance listed

COc1ccccc1
Details	viscosity
293.15 K, 101.33 kPa	1.05 mPa·s and 1.143 mPa·s
298.15 K, 101 kPa	0.9912 mPa·s and 1 mPa·s and 0.9785 mPa·s
298.15 K, 101.3 kPa	0.99 mPa·s and 0.991 mPa·s
303 K, 100 kPa	0.9804 mPa·s
303 K, 101 kPa	0.9804 mPa·s
303 K, 101.3 kPa	0.981 mPa·s
303.15 K, 100 kPa	0.923 mPa·s
303.15 K, 101.3 kPa	0.916 mPa·s and 0.915 mPa·s and 0.923 mPa·s
308.15 K, 101 kPa	0.856 mPa·s and 0.856 mPa·s and 0.8422 mPa·s
313 K, 100 kPa	0.7623 mPa·s
313 K, 101 kPa	0.7623 mPa·s
313.15 K, 100 kPa	0.764 mPa·s
318.15 K, 101 kPa	0.745 mPa·s and 0.745 mPa·s
318.15 K, 101.33 kPa	0.739 mPa·s
323 K, 100 kPa	0.6146 mPa·s
323 K, 101 kPa	0.6146 mPa·s
323.15 K, 101 kPa	0.692 mPa·s and 0.692 mPa·s and 0.72 mPa·s
323.15 K, 101.33 kPa	0.691 mPa·s and 0.691 mPa·s and 0.69 mPa·s

C[N+](C)(C)CCO.O=S(=O)([N-]S(=O)(=O)C(F)(F)F)C(F)(F)F
101 kPa
Details	viscosity [mPa·s]
298.15 K	144.8
313.15 K	56.44
318.15 K	46.77
323.15 K	39.28

Cc1ccccc1
Details	viscosity
293.15 K, 100 kPa	0.598 mPa·s
293.15 K, 101.2 kPa	0.6003 mPa·s
293.15 K, 101.32 kPa	0.5859 mPa·s
293.15 K, 101.33 kPa	0.592 mPa·s
295.85 K, 101.33 kPa	0.5984 mPa·s
298 K, 101.33 kPa	0.546 mPa·s
298.15 K, 100 kPa	0.551 mPa·s
298.15 K, 101.33 kPa	0.506 mPa·s
302.4 K, 101 kPa	0.9538 mPa·s
303 K, 100 kPa	0.5268 mPa·s
303 K, 101.33 kPa	0.514 mPa·s and 0.515 mPa·s
303.15 K, 100 kPa	0.539 mPa·s
303.15 K, 101.2 kPa	0.5357 mPa·s
303.15 K, 101.3 kPa	0.5272 mPa·s
305.45 K, 101.33 kPa	0.5375 mPa·s
308 K, 100 kPa	0.4984 mPa·s
308.15 K, 100 kPa	0.498 mPa·s
308.15 K, 101.2 kPa	0.5069 mPa·s
308.15 K, 101.3 kPa	0.492 mPa·s and 0.4981 mPa·s and 0.503 mPa·s
308.5 K, 101 kPa	0.512 mPa·s
312.65 K, 101.33 kPa	0.4982 mPa·s
313 K, 100 kPa	0.4811 mPa·s
313 K, 101.33 kPa	0.463 mPa·s and 0.461 mPa·s
313.15 K, 100 kPa	0.495 mPa·s
313.15 K, 101 kPa	0.4601 mPa·s and 0.4804 mPa·s and 0.559 mPa·s
313.15 K, 101.2 kPa	0.4807 mPa·s
313.15 K, 101.33 kPa	0.478 mPa·s and 0.478 mPa·s and 0.481 mPa·s
318.15 K, 100 kPa	0.44 mPa·s
318.15 K, 101.2 kPa	0.4571 mPa·s
318.15 K, 101.32 kPa	0.4428 mPa·s
318.15 K, 101.33 kPa	0.458 mPa·s
322.65 K, 101.33 kPa	0.45 mPa·s
323 K, 101.33 kPa	0.413 mPa·s and 0.418 mPa·s
323.15 K, 101 kPa	0.4435 mPa·s and 0.418 mPa·s and 0.4321 mPa·s

O=C(O)CBr
Details	viscosity [mPa·s]
323.15 K, 101 kPa	3.65

C1CCOC1 + c1ccccc1
[1], 303.15 K, 101.33 kPa
Details	viscosity [mPa·s]
x1 = 0.0997	0.547
x1 = 0.1996	0.536
x1 = 0.3017	0.524
x1 = 0.3993	0.514
x1 = 0.5018	0.504
x1 = 0.6038	0.495
x1 = 0.7011	0.484
x1 = 0.8026	0.471
x1 = 0.8977	0.457

CC1COC(=O)O1 (centres undefined) + c1ccccc1
viscosity [mPa·s], [1]
Details	298.15 K	303.15 K	308.15 K
101 kPa, x1 = 0.0191	0.6193	–	0.5377
101 kPa, x1 = 0.0416	0.6341	–	0.5545
101 kPa, x1 = 0.0585	0.6458	–	0.5677
101 kPa, x1 = 0.0771	0.6595	–	0.5824
101 kPa, x1 = 0.103	0.6758	–	0.6037
101 kPa, x1 = 0.1982	0.7426	–	0.6908
101 kPa, x1 = 0.2949	0.8478	–	0.7937
101 kPa, x1 = 0.3972	0.9876	–	0.9193
101 kPa, x1 = 0.4938	1.145	–	1.055
101 kPa, x1 = 0.5987	1.346	–	1.221
101 kPa, x1 = 0.7002	1.571	–	1.402
101 kPa, x1 = 0.7907	1.799	–	1.582
101 kPa, x1 = 0.9024	2.119	–	1.826
101.3 kPa, x1 = 0.1049	–	0.616	–
101.3 kPa, x1 = 0.2087	–	0.7019	–
101.3 kPa, x1 = 0.3114	–	0.798	–
101.3 kPa, x1 = 0.4131	–	0.9074	–
101.3 kPa, x1 = 0.5136	–	1.035	–
101.3 kPa, x1 = 0.6131	–	1.194	–
101.3 kPa, x1 = 0.7109	–	1.379	–
101.3 kPa, x1 = 0.8083	–	1.599	–
101.3 kPa, x1 = 0.9046	–	1.853	–

CC(=O)N(C)c1ccccc1 + c1ccncc1
[1], 298.15 K, 101 kPa
Details	viscosity [mPa·s]
x1 = 0.0361	0.967
x1 = 0.06268	1.022
x1 = 0.09446	1.082

Source: the CheMixHub viscosity set
